Data published in paper PMC12040169 (PLOS Biology, 2025).

Experiment: in vitro
Conditions: human, hela cells, % viability

Row | SMILES | viability at 28.5 h, 10 µM
1 | COc1ccccc1CC(C)NC(=O)c1ccnn1C(C)C (centres unmarked) [CBK282595] | 86.9%
2 | CCOc1cc(CCC(=O)NC(C)c2ccccc2)on1 (centres unmarked) [CBK282597] | 82.3%
3 | Fc1ccc([C@@H]2COC[C@H]2NCc2ccsc2)cc1 [CBK282598] | 100%
4 | Cc1oc2ccc(O)cc2c1C(=O)NC(C)(C)CN1CCCC(C)C1 (centres unmarked) [CBK282601] | 105%
5 | CCN1CCCC1CN(Cc1cccs1)CC1CCOC1 (centres unmarked) [CBK282602] | 97.1%
6 | CCN1CCCC1CN(Cc1cccs1)Cc1cnc(C)n1C (centres unmarked) [CBK282603] | 91.5%
7 | c1ccc(CN2CCC3(CC2)CNCc2ccccc2O3)cc1 [CBK282605] | 88.4%
8 | Cc1ccc(C2(O)CCN(CCNC(=O)C3CCCC3)CC2)cc1 [CBK282606] | 93.1%
9 | Cc1ccc(C2(O)CCN(CCNC(=O)C3CC3C)CC2)cc1 (centres unmarked) [CBK282607] | 83.9%
10 | Cc1cc2occ(CC(=O)NC3CCCN(C)C3)c2cc1C (centres unmarked) [CBK282611] | 93.1%
11 | Cc1nc(C)n(CCNC(=O)Cc2coc3cc(C)c(C)cc23)n1 [CBK282613] | 90.7%
12 | O=C(NCCCc1ccccn1)c1ccnc2ccc(Cl)cc12 [CBK282618] | 92.4%
13 | O=C(Cn1c(-c2cccs2)cc2cccnc21)N1CCCCC1 [CBK282619] | 98.1%
14 | O=C(CCn1c(-c2ccncc2)cc2cccnc21)NC1CCCCC1 [CBK282621] | 87.8%
15 | O=C(CCn1c(-c2cccnc2)cc2cccnc21)NC1CC1 [CBK282622] | 95.9%
16 | Cc1cc2cc(C(=O)NCC3CCCN(C(C)C)C3)ccc2o1 (centres unmarked) [CBK282625] | 105%
17 | Cc1ccc(C2(CN3CCC(NC(=O)CO)CC3)CCCC2)cc1 [CBK282628] | 88.5%
18 | CCc1n[nH]c(C(=O)NCC(c2ccc(F)cc2)N2CCCC2)c1C (centres unmarked) [CBK282630] | 85.8%
19 | O=C(CCN1Cc2ccccc2C1=O)NCCN1CCc2ccccc21 [CBK282632] | 97.5%
20 | Cc1cccc(-c2noc(C)c2C(=O)NCCn2ccnc2C)c1 [CBK282633] | 107%
21 | CN1CCC2(CC1)CC(NC(=O)C1CCCCC1)c1ccccc1O2 (centres unmarked) [CBK282635] | 91.6%
22 | COc1ccccc1CCCNC(=O)c1ccc(=O)n(C)c1 [CBK282636] | 82.7%
23 | CC(C)N(C(=O)Cn1nc(-c2cccs2)ccc1=O)C(C)C [CBK282638] | 90%

Row | SMILES | viability at 28.5 h, 10 µM
24 | O=C(NCCCc1ccccn1)c1cccc(N2CCCC2=O)c1 [CBK282643] | 85.9%
25 | Cc1ccn(CCNC(=O)c2cc3cccc(C)c3nc2C)n1 [CBK282645] | 82.3%
26 | CCC(=O)NCCCn1c(-c2cccnc2C)cc2cccnc21 [CBK282646] | 90.4%
27 | O=C(CCn1c(-c2cccnc2)cc2cccnc21)NC1CCCCC1 [CBK282647] | 85.8%
28 | Cc1n[nH]cc1CN(CCCn1ccnc1)Cc1cccc(F)c1 [CBK282650] | 90.1%
29 | CCC(NC(=O)Cc1c(C)nc(SC)[nH]c1=O)c1ccc(F)cc1 (centres unmarked) [CBK282653] | 81.7%
30 | Cn1nc(C2CCCN(C(=O)C3CC3)C2)c2cccnc21 (centres unmarked) [CBK282654] | 89.4%
31 | Cc1ccn(CCNC(=O)CCN2Cc3ccccc3C2=O)n1 [CBK282655] | 86.4%
32 | CC1(C(=O)NC2CCN(Cc3cccc(F)c3)CC2)CCCO1 (centres unmarked) [CBK282658] | 91.6%
33 | CCCn1cc(CN2C3CCC2CC(O)(c2ccccc2F)C3)cn1 (centres unmarked) [CBK282664] | 99.3%
34 | CC1CC(C)CN(CCCNC(=O)c2cc(C(C)C)nn2C)C1 (centres unmarked) [CBK282665] | 106%
35 | C=C(C)CN1CCN(C(=O)c2[nH]c3ccc(OCC)cc3c2C)CC1 [CBK282666] | 96.7%
36 | CC(NC(=O)C1C=CCN1S(C)(=O)=O)c1ccc2c(c1)CCC2 (centres unmarked) [CBK282667] | 88.7%
37 | CCCC(NC(=O)C1C=CCN1S(C)(=O)=O)c1cccs1 (centres unmarked) [CBK282668] | 92.9%
38 | CCn1cc(CC(=O)Nc2cccc(-n3cnnc3)c2)c2ccccc21 [CBK282669] | 66.4%
39 | Cc1nccn1CC1(O)CCN(Cc2c[nH]c3ccccc23)CC1 [CBK282671] | 82.1%
40 | O=C(c1ccccc1F)N1CCCC(c2n[nH]c3ncccc23)C1 (centres unmarked) [CBK282672] | 101%
41 | Cc1nn(C(C)CC(=O)NCCN2CCc3ccccc32)c(C)c1C (centres unmarked) [CBK282675] | 87.1%
42 | CC(=O)N1CCc2nc(NC(=O)c3cccs3)sc2C1 [CBK282680] | 74.9%
43 | O=C(Cn1c(-c2ccco2)cc2cccnc21)N1CCCC1 [CBK282683] | 84.8%
44 | O=C(NCCCc1ccc(F)cc1)c1cccc(N2CCCC2=O)c1 [CBK282684] | 88.6%
45 | Cc1ncccc1-c1cc2cccnc2n1CCCNC(=O)C1CC1 [CBK282687] | 81.5%
46 | Cc1ncccc1-c1cc2cccnc2n1CCCNC(=O)C1CC1C (centres unmarked) [CBK282688] | 101%

Row | SMILES | viability at 28.5 h, 10 µM
47 | Cc1ncccc1-c1cc2cccnc2n1CCC(=O)NC1CC1 [CBK282690] | 106%
48 | CC(C)(C)NC(=O)CCn1c(-c2cccnc2)cc2cccnc21 [CBK282691] | 109%
49 | CC1CCCCN1C(=O)CCn1c(-c2cccnc2)cc2cccnc21 (centres unmarked) [CBK282692] | 97.1%
50 | C=CCN1CCC2(CC1)CN(C(C)=O)Cc1cc(C)ccc1O2 [CBK282693] | 97.5%
51 | COc1ccccc1CCCNC(=O)CC1CCCCN1C (centres unmarked) [CBK282694] | 101%
52 | CCC1CCCCN1CC(=O)N1CCCC1c1nc2ccccc2[nH]1 (centres unmarked) [CBK282695] | 93.5%
53 | CCc1cccc2c(CC(=O)NCCn3ccc(C)n3)c(C)[nH]c12 [CBK282698] | 105%
54 | Cc1[nH]c2ccc(Cl)cc2c1CC(=O)N(C)CCN(C)C [CBK282700] | 95.5%
55 | Cc1nn(C(C)CC(=O)NCC2CCN(C(C)C)CC2)c(C)c1C (centres unmarked) [CBK282703] | 84.2%
56 | C=CCC1(CC=C)CCN1C(=O)c1cccc(N2CCCC2=O)c1 [CBK282709] | 85%
57 | CC1(C(=O)NC(c2ccncc2)c2ccc(Cl)cc2)CCCO1 (centres unmarked) [CBK282710] | 89.5%
58 | CC(C)N1CCC(CNC(=O)c2cc3ccccc3c(=O)s2)CC1 [CBK282711] | 88.6%
59 | C=C(C)CN1CCN(C(=O)CSc2nccc3ccccc23)CC1 [CBK282712] | 88.4%
60 | Cc1cc2c(cc1Cl)C(=O)CC1(CCNCC1)O2 [CBK282715] | 83.1%
61 | CC(C)C(=O)N1C[C@@H](N(C)C)[C@H](c2cn(C)c3ccccc23)C1 [CBK282717] | 91.2%
62 | Cc1nn(C)cc1CN1CCN(CC2(c3ccccc3)CC2)CC1 [CBK282721] | 105%
63 | NC[C@H]1CC[C@H](C(=O)NCCN2CCc3ccccc32)CC1 [CBK282723] | 82.7%
64 | COc1ccc(CC(=O)N(C)CCN2CCCCC2)cc1C [CBK282728] | 99.3%
65 | CCn1ncc(S(=O)(=O)Nc2ccc3c(ccn3C)c2)c1C [CBK282730] | 102%
66 | Cc1cc(C)c2c(CC(=O)N(C)CCN(C)C)c(C)[nH]c2c1 [CBK282732] | 83.6%
67 | Cc1ccc(C2(O)CCN(Cc3c(C)nc4cc(C)ccn34)CC2)cc1 [CBK282733] | 80.5%

Same assay, conditions: human, hela cells, % viability, bulk resorufin, single well

Row | SMILES | viability at 28.5 h, 10 µM
68 | Cc1cccc(CNC(Cc2ccsc2)c2nccs2)n1 (centres unmarked) [CBK282697] | 106%
